Reference: patent publication US7038033B2, “Nematode neuromuscular junction GABA receptors subunits” (University of Utah Research Foundation, priority 1998, dated 2006)

Assays:
[1] = target: UNC-49B homomeric GABA receptor (Caenorhabditis elegans, UniProt G5EEY3); assay: Two-electrode voltage clamp of Xenopus oocytes injected with UNC-49B.1 mRNA; type: cell-based, C. elegans; settings: for response of oocytes to agonist: applied at 1 mM or 10 mM
Method: (§1) Oocytes were removed from Xenopus laevis frogs anesthetized by immersion in 0.2% tricaine for 15-30 minutes. Harvested ovarian lobes were defolliculated by incubation in 2 mg/ml of collagenase (Type IA, Sigma) for 2 hours at room temperature on an orbital shaker in calcium-free ND-96 solution containing in mM: 96 NaCl, 2 KCl, 1 MgCl2, and 5 HEPES (pH=7.6). The oocytes were rinsed 5-6 times with a Barth's solution that contained (in mM): 88 NaCl, 1 KCl, 0.41 CaCl2, 0.33 Ca(NO3)2, 1 MgSO4, 2.4 NaHCO3 and 10 HEPES (pH=7.4), and selected stage V-VI oocytes were stored at 18C in Barth's solution supplemented with 1 mM Na-Pyruvate, 0.01 mg/ml gentamycin and an antibiotic-antimycotic solution containing 100 units/ml of penicillin, 100 μg/ml streptomycin and 0.25 μg/ml of Amphotericin B (Gibco BRL).
(§2) Oocytes were injected with cRNA (prepared using the mMessage mMachine kit, Ambion) into the cytoplasm 24 hours later. Glass capillary tubes (World Precision Instruments) were pulled to a fine tip on a vertical micropipette puller (David Kopf) and broken back to an outside diameter of 21 μm. RNA stocks were diluted to a final concentration of 0.75 μg/μl and injected into the oocytes (32 nl) with a microinjector (World Precision Instruments).
(§3) Electrophysiological recordings were performed 3-7 days following injection and were carried out at room temperature in a control Ringers solution containing in mM: 115 NaCl, 2.5 KCl, 1.0 BaCL2, and 10 HEPES (pH=7.4). Two electrode voltage clamp recordings were obtained with a Geneclamp amplifier (Axon Instruments) using […] KCl-filled microelectrodes (1-5 M). Recordings were carried out at a holding potential of −60 mV. Concentration-effect data were fit to the logistic equation: I=Imax/{1+(EC50/[agonist])^nH}, where Imax is the maximal current, [agonist] is the concentration, EC50 is the concentration of agonist resulting in half maximal activation and nH is an empirical parameter describing the steepness of fit and having the same meaning as the Hill coefficient. NFIT (Island Products) was used for non-linear curve fitting. Data are presented as the mean S.E.M.; n is the number of oocytes tested. All combinations of subunits were tested in parallel in at least two independent experiments (at least 4 oocytes for each combination of mRNAs per experiment). The effect of incorporating the UNC-49C subunit was consistent from one experiment to another. Single channel recordings were performed as described in except that 1 mM GABA was applied continuously. Single channel conductance was determined by fitting Gaussian curves to all points histograms.

UNC-49C = assay: Two-electrode voltage clamp of Xenopus oocytes injected with UNC-49C RNA; type: cell-based, C. elegans; settings: any concentration
Method: as §1, §2, §3

[2] = target: UNC-49B/C heteromeric GABA receptor (Caenorhabditis elegans, UniProt G5EE10+G5EEY3); assay: Two-electrode voltage clamp of Xenopus oocytes injected with equal amounts of UNC-49B and UNC-49C RNA; type: cell-based; settings: Xenopus oocytes co-expressing UNC-49B and UNC-49C
Method: as §1
Oocytes were injected with cRNA (prepared using the mMessage mMachine kit, Ambion) into the cytoplasm 24 hours later. […]
Electrophysiological recordings were performed 3-7 days following injection and were carried out at room temperature in a control Ringers solution containing in mM: 115 NaCl, 2.5 KCl, 1.0 BaCL2, and 10 HEPES (pH=7.4). […] Single channel conductance was determined by fitting Gaussian curves to all points histograms.

UNC-49B homomeric GABA receptor, sequence (G5EEY3 entry or part of it): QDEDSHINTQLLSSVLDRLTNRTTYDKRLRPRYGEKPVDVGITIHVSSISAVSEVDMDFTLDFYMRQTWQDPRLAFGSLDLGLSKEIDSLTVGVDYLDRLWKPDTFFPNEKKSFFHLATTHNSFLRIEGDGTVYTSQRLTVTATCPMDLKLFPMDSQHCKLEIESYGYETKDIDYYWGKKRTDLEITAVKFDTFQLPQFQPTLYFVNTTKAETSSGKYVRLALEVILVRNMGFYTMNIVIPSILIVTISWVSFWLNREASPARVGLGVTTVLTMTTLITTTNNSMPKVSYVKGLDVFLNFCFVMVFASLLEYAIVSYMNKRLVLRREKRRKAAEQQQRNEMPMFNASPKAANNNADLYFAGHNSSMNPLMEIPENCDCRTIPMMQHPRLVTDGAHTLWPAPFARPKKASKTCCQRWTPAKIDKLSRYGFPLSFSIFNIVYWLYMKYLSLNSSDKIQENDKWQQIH
UNC-49B/C heteromeric GABA receptor, sequence (G5EE10 entry or part of it): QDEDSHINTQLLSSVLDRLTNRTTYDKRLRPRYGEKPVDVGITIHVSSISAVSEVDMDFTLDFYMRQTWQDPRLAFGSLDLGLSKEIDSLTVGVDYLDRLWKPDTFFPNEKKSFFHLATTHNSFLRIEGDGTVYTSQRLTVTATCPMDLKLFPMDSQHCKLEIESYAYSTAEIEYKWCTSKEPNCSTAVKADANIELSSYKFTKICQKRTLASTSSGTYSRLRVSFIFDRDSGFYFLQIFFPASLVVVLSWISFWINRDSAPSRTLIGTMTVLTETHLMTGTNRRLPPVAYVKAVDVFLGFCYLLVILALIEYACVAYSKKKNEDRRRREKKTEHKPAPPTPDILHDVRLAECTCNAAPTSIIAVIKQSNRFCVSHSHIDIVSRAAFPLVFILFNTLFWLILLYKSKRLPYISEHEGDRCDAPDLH
UNC-49B/C heteromeric GABA receptor, sequence (G5EEY3 entry or part of it): as the sequence (G5EEY3 entry or part of it) above

NCC(=O)O [glycine]
response of oocytes to agonist ([1]; UNC-49B-expressing oocytes): did not respond
response of oocytes to agonist (UNC-49C): equally unresponsive

NCCC(=O)O [β-alanine]
currents produced by agonist ([1]; UNC-49B-expressing oocytes, 10 mM, n=4): only slightly greater than baseline noise
response of oocytes to agonist (UNC-49C): equally unresponsive

NCCCC(=O)O [GABA, gamma-aminobutyric acid]
current when exposed to agonist ([1]; UNC-49B.1-injected Xenopus oocytes): robust, desensitizing, dose-dependent current
EC50 ([1]; UNC-49B.1-injected Xenopus oocytes, holding potential -60 mV, representative experiment, read-out: GABA concentration required to produce half-maximal channel activity (EC50)): 43.7 µM
Hill coefficient ([1]; UNC-49B.1-injected Xenopus oocytes, representative experiment): 2.94
response of oocytes to agonist (UNC-49C): failed to respond
EC50 [2]: 108 µM
Hill coefficient [2]: 1.33

N[C@@H](CCC(=O)O)C(=O)O [glutamate]
response of oocytes to agonist ([1]; UNC-49B-expressing oocytes): did not respond
response of oocytes to agonist (UNC-49C): equally unresponsive
